{"source": "patent US10028971B2", "about": "“Compositions and methods for treating psychiatric disorders” (GOSFORTH CENTRE (HOLDINGS) PTY LTD., priority 2008, dated 2018)", "key": {"[1]": {"system": "individuals with developmental dyspraxia / poor coordination", "assay": "Treatment of developmental dyspraxia, clinical observation", "type": "in vivo, human", "settings": "person", "text": "Many of the individuals treated at this clinic, with a diagnosis of ADHD and/or pervasive development disorder such Asperger's Syndrome or autism also present with symptoms consistent with a diagnosis of a developmental coordination disorder. They are often described as ‘unco’ (unco-ordinated) by their peers and experience victimization, poor self-esteem and frustration as a consequence of their poor coordination. […] Individuals have described a sense of having more time to coordinate movements and to understand and integrate their own activity appropriately within a team sport such as soccer, which has previously eluded them. Individuals have felt frustration at being able to practise repeatedly an activity or skill only to be unable to put it into practice when required, within the play of a match. It is proposed that individuals were previously unable to process and plan their own coordination but remain aware of the general activity in which they were participating."}, "[2]": {"system": "individual with a history of a head injury", "assay": "Head injury with acquired ADHD syndrome, clinical case", "type": "in vivo, human", "settings": "person", "text": "A person, no history of ADHD in childhood. Involved in a serious motor vehicle accident the with a depressed skull fracture and frontal lobe involvement. Subsequent history consistent with a acquired syndrome of ADHD. Subsequent development of co-morbid diagnoses included in alcohol dependence, pathological gambling and major depression."}, "[3]": {"system": "adherence to medication regime", "settings": "person", "quoted_text": "As a result, taking medication becomes an automatic activity which doesn't require a high level of attention and motivation.\nThe individual experiences an improvement in the ability to efficiently and effectively attend to a task in hand, without also needing to expend extra cognitive effort to remember which medication to take and at what times."}, "[4]": {"system": "patients with substance addiction", "assay": "Treatment of addictions, clinical observation", "type": "in vivo, human", "settings": "for clinical outcome (case): person", "text": "Addiction to amphetamines poses a number of unique challenges."}, "[5]": {"system": "individuals with sleep disorders", "assay": "Sleep disorders, clinical observation", "type": "in vivo, human", "settings": "person, chronic insomnia, restless legs; sodium valproate added to dexamphetamine 25 mg"}, "adults with ADHD": {"system": "adults with ADHD", "description": "In the clinical setting a number of adults with ADHD experienced a combination therapy of stimulant medication (dexamphetamine) in combination with sodium valproate (VPA). The initial dosages used were from 15 to 70 mg/day of dexamphetamine and from 100 to 700 mg/day of VPA (Epilim) (=approximately 2 to 10 mg/kg/day).\nThe determination of the dose for the dexamphetamine was undertaken in a clinical sensitive open label manner. The dose was titrated upwards dependent on the clinical response and the freedom from side-effects. The dose range was between 15 and 70 mg a day. The frequency of the dosing also varied dependent upon the clinical response. The usual dose interval was between two to four hours. This dosing adjustment took place prior to the commencement of the sodium valproate. The sodium valproate medication was initiated once a day at 50 mg tablet or elixir and titrated upwards dependent on response, but not more than one increase every three days. The dose was given as a once or twice a day regime. During the titration phase, if clinically possible, no other adjustments to the pharmacotherapy were undertaken."}, "[6]": {"system": "individuals with dysthymia", "assay": "Treatment of dysthymia, clinical observation", "type": "in vivo, human", "settings": "person, PTSD, treated ADHD, sodium valproate 100 mg a day", "text": "The inventor has noted in the clinical setting that individuals suffering with symptoms consistent with a diagnosis of dysthymia, experience a significant abatement from their negative and sometimes intrusive thought patterns on commencement of a low dose anti-epileptic drug. The inventor has also noted in the clinic that the beneficial effects that are noted on commencement of this combination can be further enhanced synergistically, by the use of a psycho-stimulant. These individuals may or may not meet the full criteria for a DSM IV diagnosis consistent with ADHD.\nA number of individuals with symptoms of dysthymia report that the depression has been present since adolescence, and finally present in the clinic, after an acute major depressive episode. They are able to achieve a partial resolution from the symptoms of depression with appropriate pharmacological and psychological treatment. Unfortunately, their negative thought patterns are more persistent and can be misinterpreted as a failure to adequately respond to antidepressant therapy. In actuality these symptoms predate the acute episode, and it is not surprising therefore that they don't abate following treatment. […] These subsequent outcomes lead to an improvement in general interpersonal functioning, which in itself contributes to psychosocial stability. […]"}, "[7]": {"system": "mood stabilisation or epileptic symptoms or events", "settings": "adults, cited from earlier work"}}, "note": "Read-outs that look alike come from different tables or passages of the source."}
{"smiles": "CCCC(CCC)C(=O)O.[Na]", "note": "[sodium valproate, sodium di-n-propylacetic acid]", "values": [{"measurement": "clinical outcome (case)", "setting": "[1]; ADHD, dexamphetamine 25 mg daily augmented with atomexetine 60 mg and sodium valproate 150 mg", "value": "Significant improvement in psychosocial functioning"}, {"measurement": "clinical outcome (case)", "setting": "[1]; Sodium valproate 50 mg increased to 100 mg with stimulant", "value": "improved coordination, improved school attendance, improved cognition and report grades"}, {"measurement": "clinical outcome (case)", "setting": "[2]; sodium valproate 150 mg added to dexamphetamine 50 mg", "value": "Improved social interaction and egocentric eye gaze"}, {"measurement": "clinical outcome (case)", "setting": "[2]; sodium valproate above 150 mg", "value": "loss of benefit"}, {"measurement": "clinical outcome (case)", "setting": "[3]; complex regime, no ADHD, ASD or dementia, Sodium valproate 100 mg added", "value": "enhanced ability to track their thoughts with less effort"}, {"measurement": "clinical outcome (case)", "setting": "[3]; sodium valproate reduced to 100 mg with dexamphetamine 40 mg", "value": "improved efficacy, cognition, organisation and compliance with medication"}, {"measurement": "clinical outcome (case)", "setting": "[4]; methamphetamine use, 100 mg/d Valproate with 50 mg/d dexamphetamine", "value": "robust improvement in attention and concentration abilities"}, {"measurement": "clinical outcome (case)", "setting": "[4]; sodium valproate 50 mg increased to 200 mg with dexamphetamine", "value": "reduced dependence on marijuana and ceased alcohol consumption"}, {"measurement": "clinical outcome", "setting": "[4]; two patients, ADHD and methamphetamine addiction, Valproate 50 to 100 mg/d with 50 mg/d dexamphetamine", "value": "responded well"}, {"measurement": "clinical outcome on sleep (case)", "setting": "[5]", "value": "less effort was required to initiate sleep"}, {"measurement": "clinical outcome (case)", "setting": "adults with ADHD; adult female, sodium valproate maximum 150 mg added to methylphenidate", "value": "Improvement"}, {"measurement": "group outcome of combination therapy", "setting": "adults with ADHD; adults with ADHD, Methylphenidate 40 mg/d, Valproate 100 mg/d, Phenytoin 50 mg/d", "value": "successfully treated"}, {"measurement": "clinical assessment under combination therapy", "setting": "adults with ADHD; adults with ADHD, Valproate 50-300 mg/d with Dexamphetamine 20-75 mg/d", "value": "overall improvement in psychosocial functioning"}, {"measurement": "group outcome of combination therapy", "setting": "adults with ADHD; adults with ADHD, dexamphetamine 20-45 mg/d, Valproate 100-400 mg/d, Phenytoin 12.5-50 mg/d", "value": "successfully treated"}, {"measurement": "group outcome of combination therapy", "setting": "adults with ADHD; adults with ADHD, median 40 mg/d Dexamphetamine, 120 mg/d Sodium Valproate, 25 mg/d Topiramate", "value": "successfully treated"}, {"measurement": "group outcome of combination therapy", "setting": "adults with ADHD; adults with ADHD, methylphenidate 30-125 mg/d with Valproate 50-200 mg/d", "value": "successfully treated"}, {"measurement": "effect of higher doses", "setting": "adults with ADHD; human, in vivo", "value": "general cognitive slowing and the resultant loss of efficacy"}, {"measurement": "clinical outcome (case)", "setting": "adults with ADHD; person, ADHD, anorexia nervosa, borderline personality disorder, sodium valproate 200 mg with dexamphetamine", "value": "responded"}, {"measurement": "clinical outcome (case)", "setting": "adults with ADHD; person, ADHD, low dose sodium valproate 50 mg added to psycho stimulant", "value": "improvement in their egocentric gaze and improved cognition"}, {"measurement": "clinical outcome (case)", "setting": "adults with ADHD; person, ADHD, sodium valproate 100 mg a day added to dexamphetamine 40 mg", "value": "improvement with more organised thoughts"}, {"measurement": "self-described improvement in ability to study", "setting": "adults with ADHD; person, ADHD, sodium valproate (50 mg) added to psycho stimulant", "value": 50, "unit": "%"}, {"measurement": "clinical outcome (case)", "setting": "adults with ADHD; person, 100 mg sodium valproate added to methylphenidate 55 mg", "value": "enhanced ability to maintain conversation, improved cognition, improved assertiveness and self organisation"}, {"measurement": "clinical outcome (case)", "setting": "adults with ADHD; person, sodium valproate (up to 500 mg a day) added to dexamphetamine 20 mg", "value": "Further benefit"}, {"measurement": "clinical outcome (case)", "setting": "adults with ADHD; person, sodium valproate maximum 400 mg added to dexamphetamine", "value": "good effect"}, {"measurement": "clinical outcome (case)", "setting": "adults with ADHD; person, valproate dose reached 150 mg, with psycho stimulant", "value": "benefits were lost"}, {"measurement": "clinical outcome (case)", "setting": "[6]", "value": "could read without distraction"}, {"measurement": "dose range in which control of symptoms of mania occurs", "setting": "[7]; mania (e.g. bipolar disorder), Epilim product information (Sanofi-Aventis)", "value": "1,000 to 2,000 mg/day"}, {"measurement": "dose range in which control of symptoms of mania occurs", "setting": "[7]; mania, Epilim product information", "value": "20 to 30", "unit": "mg/kg/day"}]}
